From ChEMBL document CHEMBL1201862, “PubChem BioAssay data set” (2004)
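Each compound was tested at five concentrations against cells in 96-well plates for 48 hours. GI50 is the concentration that inhibits growth by half.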 The source made the active and inactive calls. Rule as the data show it: active = GI50 up to about 1.1 µM and inactive = higher.

Experiments:
Assay in all cases: NCI anticancer screen, dose series, 48 h
CAKI-1 = system: CAKI-1
SN12C = system: SN12C
UACC-257 = system: UACC-257
EKVX = system: EKVX
NCI-H23 = system: NCI-H23
HOP-62 = system: HOP-62
NCI-H522 = system: NCI-H522
OVCAR-4 = system: OVCAR-4
SW-620 = system: SW-620
HOP-18 = system: HOP-18
SNB-19 = system: SNB-19
Malme-3M = system: Malme-3M
SK-OV-3 = system: SK-OV-3
OVCAR-5 = system: OVCAR-5
HT-29 = system: HT-29
UACC-62 = system: UACC-62
DMS-273 = system: DMS-273
RXF 393 = system: RXF 393
DMS-114 = system: DMS-114
SR = system: SR

Measured: GI50

CCN(CC)CCNC(=O)C1COc2ccc(-c3cc(=O)c4ccccc4o3)cc2O1 (configuration not stated)
inactive: CAKI-1 20.5 µM | SN12C 19.1 µM | UACC-257 17.6 µM | EKVX 26.7 µM | NCI-H23 22 µM | HOP-62 21.4 µM | NCI-H522 18.2 µM | OVCAR-4 18.5 µM | SW-620 18.5 µM | HOP-18 21 µM | SNB-19 20.2 µM | Malme-3M 16 µM | SK-OV-3 23 µM | OVCAR-5 22.3 µM | HT-29 14.9 µM | UACC-62 17.6 µM | DMS-273 19.4 µM | RXF 393 20 µM

C[C@]12CC[C@H](OC(=O)Nc3ccccc3)CC1=CC[C@@H]1C2CC[C@]2(C)/C(=N/OC(=O)Nc3ccccc3)CCC12 (some centres not stated)
inactive: CAKI-1 1.81 µM | SN12C 1.79 µM | EKVX 30.1 µM | NCI-H23 > 100 µM | OVCAR-4 5.66 µM | SW-620 > 100 µM | HOP-18 2.4 µM | SNB-19 76.2 µM | Malme-3M 1.72 µM | SK-OV-3 > 100 µM | OVCAR-5 70.5 µM | HT-29 2.88 µM | UACC-62 > 100 µM | DMS-273 37.3 µM | DMS-114 2.71 µM

Cc1nc(-n2nc(-c3ccccc3)cc2-c2ccccc2)sc1C(/C=C/c1ccc([N+](=O)[O-])cc1)=N/NC(=O)c1ccncc1
inactive: SN12C 24.2 µM | UACC-257 41.7 µM | EKVX 36.8 µM | NCI-H23 14.8 µM | HOP-62 12.8 µM | SW-620 26.7 µM | SNB-19 14 µM | Malme-3M 21.9 µM | SK-OV-3 44.8 µM | OVCAR-5 53.1 µM | HT-29 14.4 µM | UACC-62 19.4 µM | DMS-114 13.9 µM | RXF 393 22.4 µM

CC(=O)CCCCO
inactive: CAKI-1 > 100 µM | SN12C > 100 µM | UACC-257 > 100 µM | EKVX > 100 µM | NCI-H23 > 100 µM | HOP-62 > 100 µM | NCI-H522 > 100 µM | OVCAR-4 > 100 µM | SW-620 > 100 µM | SNB-19 > 100 µM | Malme-3M > 100 µM | SK-OV-3 > 100 µM | OVCAR-5 > 100 µM | HT-29 > 100 µM | UACC-62 > 100 µM | DMS-273 > 100 µM | DMS-114 > 100 µM | RXF 393 > 100 µM

CC(=O)NC(CCCCN(Cc1ccccc1)C(=O)N(C)N=O)C(=O)NCc1ccccc1 (configuration not stated)
inactive: CAKI-1 > 100 µM | SN12C > 100 µM | UACC-257 > 100 µM | EKVX 90.4 µM | NCI-H23 > 100 µM | HOP-62 > 100 µM | NCI-H522 16.8 µM | OVCAR-4 62.2 µM | SW-620 > 100 µM | SNB-19 > 100 µM | Malme-3M 82 µM | SK-OV-3 > 100 µM | OVCAR-5 > 100 µM | HT-29 83.9 µM | UACC-62 > 100 µM | DMS-273 97.3 µM | DMS-114 43.6 µM | RXF 393 72.1 µM

COc1ccc(OC(C)=O)c2c1CCC=CC2=O
inactive: SR 15.1 µM | SN12C 17.1 µM | UACC-257 17.7 µM | NCI-H23 18.5 µM | HOP-62 14.7 µM | NCI-H522 1.86 µM | OVCAR-4 20 µM | SW-620 13.2 µM | SNB-19 17.6 µM | Malme-3M 20.1 µM | SK-OV-3 17.5 µM | OVCAR-5 16.7 µM | HT-29 12.3 µM | UACC-62 13.4 µM | DMS-273 16.6 µM | DMS-114 19.1 µM | RXF 393 9.16 µM

COC(=O)Cc1nn2c(nc1=O)sc1ccc3ccccc3c12
inactive: CAKI-1 50.2 µM | SR > 100 µM | SN12C > 100 µM | UACC-257 > 100 µM | EKVX > 100 µM | NCI-H23 > 100 µM | HOP-62 72.1 µM | NCI-H522 37.2 µM | OVCAR-4 > 100 µM | SW-620 > 100 µM | HOP-18 > 100 µM | SNB-19 > 100 µM | Malme-3M > 100 µM | SK-OV-3 > 100 µM | OVCAR-5 > 100 µM | HT-29 > 100 µM | RXF 393 50.7 µM

COC1(OC)CC2C=C(S(=O)(=O)c3ccccc3)C1N(Cc1ccccc1)C2=O (configuration not stated)
inactive: SR 28.9 µM | SN12C 23 µM | UACC-257 22.6 µM | EKVX 91.4 µM | NCI-H23 15.2 µM | HOP-62 97.7 µM | NCI-H522 16.4 µM | OVCAR-4 29.2 µM | SW-620 22.6 µM | HOP-18 > 100 µM | SNB-19 39.8 µM | Malme-3M 24.9 µM | SK-OV-3 88.1 µM | HT-29 28.1 µM | UACC-62 20.2 µM | DMS-114 20.3 µM | RXF 393 17.9 µM

Nc1nc(SCc2ccc([N+](=O)[O-])cc2)nc2c1ncn2C1OC(COP(=O)(O)O)C(O)C1O (configuration not stated)
inactive: SR > 100 µM | SN12C > 100 µM | UACC-257 > 100 µM | EKVX > 100 µM | NCI-H23 > 100 µM | HOP-62 > 100 µM | NCI-H522 > 100 µM | OVCAR-4 > 100 µM | SW-620 > 100 µM | SNB-19 > 100 µM | Malme-3M > 100 µM | SK-OV-3 > 100 µM | OVCAR-5 > 100 µM | HT-29 > 100 µM | UACC-62 > 100 µM | DMS-273 > 100 µM | DMS-114 > 100 µM | RXF 393 > 100 µM

O=C1C=CC2(C=C1)C[C@H](NC(=O)C(F)(F)F)C(=O)O2
inactive: CAKI-1 30.5 µM | SR 37 µM | SN12C 50 µM | UACC-257 34.8 µM | EKVX 18.2 µM | NCI-H23 26.7 µM | HOP-62 > 100 µM | NCI-H522 17.3 µM | OVCAR-4 > 100 µM | SNB-19 > 100 µM | Malme-3M 19.8 µM | SK-OV-3 > 100 µM | OVCAR-5 > 100 µM | HT-29 79.6 µM | UACC-62 18.1 µM | DMS-114 64.6 µM | RXF 393 27.5 µM

O=C(CSc1nc(=O)c(-c2ccccc2NC(=O)C(F)(F)F)n[nH]1)NC(=O)Nc1ccccc1
inactive: CAKI-1 48.1 µM | SR > 100 µM | SN12C > 100 µM | EKVX 55.5 µM | NCI-H23 > 100 µM | HOP-62 > 100 µM | NCI-H522 76.4 µM | SW-620 > 100 µM | SNB-19 > 100 µM | Malme-3M > 100 µM | SK-OV-3 39 µM | OVCAR-5 > 100 µM | HT-29 > 100 µM | UACC-62 50 µM | DMS-273 90.8 µM | RXF 393 > 100 µM

Cc1ccccc1N(CC(=O)O)S(=O)(=O)c1ccccc1
inactive: CAKI-1 > 100 µM | SN12C > 100 µM | UACC-257 > 100 µM | EKVX > 100 µM | NCI-H23 > 100 µM | NCI-H522 > 100 µM | OVCAR-4 > 100 µM | SW-620 > 100 µM | HOP-18 > 100 µM | SNB-19 > 100 µM | Malme-3M > 100 µM | SK-OV-3 > 100 µM | OVCAR-5 > 100 µM | HT-29 > 100 µM | UACC-62 > 100 µM | DMS-273 > 100 µM | RXF 393 > 100 µM
